Assay results from ChEMBL document CHEMBL1201862, “PubChem BioAssay data set” (2004).
Active and inactive are the calls of the source.

Experiments:
[1] = target: Ras and Rab interactor 1/Tyrosine-protein kinase ABL1 (Homo sapiens, UniProt P00519+Q13671); format: functional;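 note: biochemical TR-FRET dose-response test measuring inhibition of binding between Rin1 and Abl proteins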
[2] = ARNT/TACC3 interaction disruptors, potency, confirmation, biochemical, AlphaScreen, cherry-picked samples (AID 651703); format: functional, Homo sapiens;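 note: His-tagged ARNT PAS-B domain paired with GST-TACC3 E629A dimer coactivator fragment; potency of inhibitors that break up the complex and lower AlphaScreen signal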
[3] = target: DNA repair and recombination protein RAD54-like (Homo sapiens, UniProt Q92698); test: inhibitors of human RAD54 branch migration, confirmation, biochemical, fluorescence, cherry-picked samples, dose series (AID 651657); format: functional
[4] = target: Potassium voltage-gated channel subfamily KQT member 2 (Rattus norvegicus, UniProt O88943); test: KCNQ2 potassium channel inhibitors, dose response, cell-based, automated electrophysiology, set II, rat KCNQ2 (AID 588637); format: functional
[5] = target: Histone-lysine N-methyltransferase NSD2 (Homo sapiens, UniProt O96028); format: biochemical
[6] = target: Genome polyprotein (dengue virus type 2, UniProt P29990); test: Dengue-2 NS5 methyltransferase inhibitors, primary screen, biochemical, confirmation dose response (AID 588689); format: functional
[7] = target: T1, RNA-binding protein pos-1 (Caenorhabditis elegans, UniProt G5EF15); test: inhibitors of POS-1/mex-3 RNA binding, dose response, biochemical, fluorescence polarization (AID 1964);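 note: purified POS-1 fused to maltose binding protein made in E. coli; potency of compounds blocking POS-1 binding to fluorescent RNA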
T1 sequence (G5EF15 whole entry): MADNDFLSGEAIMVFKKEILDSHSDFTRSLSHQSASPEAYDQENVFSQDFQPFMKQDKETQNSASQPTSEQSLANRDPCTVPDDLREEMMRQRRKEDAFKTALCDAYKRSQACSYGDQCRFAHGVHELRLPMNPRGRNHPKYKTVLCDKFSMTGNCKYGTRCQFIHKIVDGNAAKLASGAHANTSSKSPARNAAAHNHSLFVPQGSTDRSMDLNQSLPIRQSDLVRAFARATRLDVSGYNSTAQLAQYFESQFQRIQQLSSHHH

[8] = target: T2, Zinc finger protein mex-5 (Caenorhabditis elegans, UniProt Q9XUB2); test: MEX-5/TCR-2 RNA interaction inhibitors, dose response, biochemical, C. elegans, fluorescence polarization (AID 1960)
T2 sequence (Q9XUB2 whole entry): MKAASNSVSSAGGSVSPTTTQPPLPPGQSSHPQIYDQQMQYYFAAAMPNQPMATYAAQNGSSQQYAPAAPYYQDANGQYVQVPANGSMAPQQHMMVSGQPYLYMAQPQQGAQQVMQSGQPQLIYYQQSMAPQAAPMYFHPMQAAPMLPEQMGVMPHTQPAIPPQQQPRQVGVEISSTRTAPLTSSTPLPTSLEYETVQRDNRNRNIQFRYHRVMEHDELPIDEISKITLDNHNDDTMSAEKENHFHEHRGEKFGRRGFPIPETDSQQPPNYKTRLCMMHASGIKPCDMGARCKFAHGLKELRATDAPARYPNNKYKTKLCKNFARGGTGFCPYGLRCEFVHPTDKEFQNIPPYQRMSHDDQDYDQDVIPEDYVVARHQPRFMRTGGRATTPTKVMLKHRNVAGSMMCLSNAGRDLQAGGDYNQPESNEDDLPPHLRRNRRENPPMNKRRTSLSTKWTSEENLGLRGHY

[9] = target: DNA (cytosine-5)-methyltransferase 1 (Homo sapiens, UniProt P26358); test: DNMT1 methyltransferase inhibitors, confirmation, biochemical, fluorescent molecular beacon (AID 602386); format: functional
[10] = target: T3, Carboxy-terminal domain RNA polymerase II polypeptide A small phosphatase 1 (Homo sapiens, UniProt Q9GZU7); test: inhibitors of CTDSP1, concentration-response testing, biochemical assay, absorbance-based, actives from ultra-high-throughput screening (AID 540297); format: functional
T3 sequence (Q9GZU7 whole entry): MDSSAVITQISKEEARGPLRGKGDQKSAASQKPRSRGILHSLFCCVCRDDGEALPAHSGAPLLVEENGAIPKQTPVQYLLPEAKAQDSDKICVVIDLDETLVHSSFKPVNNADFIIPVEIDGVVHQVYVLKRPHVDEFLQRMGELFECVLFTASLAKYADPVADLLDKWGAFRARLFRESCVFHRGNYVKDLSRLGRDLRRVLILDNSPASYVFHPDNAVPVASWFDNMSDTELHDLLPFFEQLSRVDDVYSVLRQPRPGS

[11] = Luminescence Cell-Based Dose Response HTS to Identify Activators of Luciferase Translation or Activity in H4 […] Cells. [Related pubchem assays: 1829 (Project Summary), 1814 (Primary HTS)]; format: functional
[12] = Luminescence Cell-Based Dose Confirmation HTS to Identify Activators of 5'UTR Stem-Loop Driven Alpha-Synuclein mRNA Translation in H4 Neuroglioblastoma Cells. [Related pubchem assays: 1829 (Project Summary), 1814 (Primary HTS)]; format: functional
[13] = tested on: H4; test: Luminescence Cell-Based Dose Response HTS to Identify Activators of 5'UTR Stem-Loop Driven Prion Protein mRNA Translation in H4 Neuroglioblastoma Cells. [Related pubchem assays: 1829 (Project Summary), 1814 (Primary HTS)]; format: functional; conditions: Homo sapiens
[14] = Vero cell cytotoxicity, cytotoxicity control for M. tuberculosis inhibitor project, purified and synthesized samples, set 3 (AID 504684); format: functional
[15] = target: Protein Wnt-3a (Mus musculus, UniProt P27467); test: Wnt3a-driven reporter signaling inhibition, dose response, selectivity assay for Gli-SUFU antagonist project, Wnt-LIGHT cells, luminescence (AID 651570); format: functional; conditions: read-out: IC50_Mean;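 note: Wnt-LIGHT reporter cells stimulated with conditioned medium from Wnt3a-producing cells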
[16] = control 3'UTR Renilla luciferase suppression, dose response, counter-screen for Shn3 inhibitor project, cell-based, Clone20-Shn3RL, cherry-picked (AID 624133); format: functional
[17] = Shn3 3'UTR reporter inhibitors, dose response, cell-based, Clone20 osteoblasts, firefly luciferase, cherry-picked (AID 624132); format: functional;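 note: firefly luciferase luminescence from reporter carrying the Shn3 3'UTR in osteoblasts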
[18] = HepG2 cell cytotoxicity, dose response, cytotoxicity control for Shn3 inhibitor project, CellTiter-Glo, cherry-picked (AID 624134); format: functional, cell-based
[19] = target: Melanin-concentrating hormone receptor 1 (Homo sapiens, UniProt Q99705); test: Late-stage fluorescence-based counterscreen for antagonists of the G-protein coupled receptor 7 (GPR7): cell-based dose response assay to identify antagonists of the melanin-concentrating hormone receptor 1 (MCHR1) Set 6.; format: functional
[20] = target: T4, Neuropeptides B/W receptor type 1 (Homo sapiens, UniProt P48145); test: GPR7 antagonist potency, late-stage follow-up, cell-based, fluorescence, dose response, set 6 (AID 588583); format: functional
T4 sequence (P48145 whole entry): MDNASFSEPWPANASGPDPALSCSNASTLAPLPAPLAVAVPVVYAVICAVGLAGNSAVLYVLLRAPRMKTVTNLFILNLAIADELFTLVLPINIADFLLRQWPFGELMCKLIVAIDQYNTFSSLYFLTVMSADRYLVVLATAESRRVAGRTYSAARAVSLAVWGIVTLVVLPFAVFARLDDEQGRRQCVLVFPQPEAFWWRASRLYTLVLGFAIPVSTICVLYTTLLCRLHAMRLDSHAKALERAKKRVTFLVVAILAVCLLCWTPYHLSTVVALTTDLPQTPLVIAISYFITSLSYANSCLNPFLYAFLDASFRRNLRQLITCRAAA

[21] = target: T5, Sentrin-specific protease 1 (Homo sapiens, UniProt Q9P0U3); test: Dose response confirmation of small molecule inhibitors of the catalytic domain of the SUMO protease, SENP1 in a FRET assay.; format: functional; conditions: read-out: IC50_Mean
T5 sequence (Q9P0U3 whole entry): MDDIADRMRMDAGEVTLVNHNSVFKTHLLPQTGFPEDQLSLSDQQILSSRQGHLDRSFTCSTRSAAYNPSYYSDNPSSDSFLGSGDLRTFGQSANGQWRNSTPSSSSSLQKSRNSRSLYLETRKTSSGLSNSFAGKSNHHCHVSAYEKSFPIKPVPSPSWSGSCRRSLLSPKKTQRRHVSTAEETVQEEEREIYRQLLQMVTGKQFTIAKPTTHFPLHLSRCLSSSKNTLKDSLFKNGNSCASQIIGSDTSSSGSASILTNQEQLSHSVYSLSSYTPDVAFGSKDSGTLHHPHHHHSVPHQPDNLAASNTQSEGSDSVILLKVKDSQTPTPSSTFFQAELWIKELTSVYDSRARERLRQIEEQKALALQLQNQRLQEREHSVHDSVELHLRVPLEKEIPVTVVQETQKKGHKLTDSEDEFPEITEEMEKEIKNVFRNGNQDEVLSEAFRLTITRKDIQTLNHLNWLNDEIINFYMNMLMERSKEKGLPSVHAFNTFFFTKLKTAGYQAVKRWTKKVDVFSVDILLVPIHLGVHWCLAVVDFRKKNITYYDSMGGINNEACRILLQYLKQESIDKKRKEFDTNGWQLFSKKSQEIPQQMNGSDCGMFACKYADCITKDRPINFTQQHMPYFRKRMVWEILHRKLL

[22] = target: T5, Sentrin-specific protease 1; test: potency of human SENP1 inhibitors, dose response, biochemical, kinetic FRET (AID 651697); format: functional; conditions: read-out: IC50_Mean
[23] = target: Melanocortin receptor 4 (Homo sapiens, UniProt P32245); format: functional, cell-based;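 note: Cell-based assay with luminescence read-out, confirmatory dose-response testing for agonist activity of biased ligands at MC4R; human U2OS cells with tagged receptor and beta-arrestin; potency of agonists that increase receptor coupling to beta-arrestin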
Melanocortin receptor 4, sequence (P32245 whole entry): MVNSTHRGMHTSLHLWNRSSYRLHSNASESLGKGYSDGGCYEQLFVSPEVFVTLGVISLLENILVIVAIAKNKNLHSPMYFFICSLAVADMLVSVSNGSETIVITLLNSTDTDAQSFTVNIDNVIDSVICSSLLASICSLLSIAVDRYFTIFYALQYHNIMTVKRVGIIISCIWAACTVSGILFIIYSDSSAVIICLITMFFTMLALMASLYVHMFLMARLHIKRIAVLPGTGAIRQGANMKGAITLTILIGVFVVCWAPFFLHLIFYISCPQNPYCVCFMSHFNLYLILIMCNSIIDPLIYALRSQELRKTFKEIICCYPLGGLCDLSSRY

Ras and Rab interactor 1/Tyrosine-protein kinase ABL1, sequence (P00519 whole entry, the tested form may be a part): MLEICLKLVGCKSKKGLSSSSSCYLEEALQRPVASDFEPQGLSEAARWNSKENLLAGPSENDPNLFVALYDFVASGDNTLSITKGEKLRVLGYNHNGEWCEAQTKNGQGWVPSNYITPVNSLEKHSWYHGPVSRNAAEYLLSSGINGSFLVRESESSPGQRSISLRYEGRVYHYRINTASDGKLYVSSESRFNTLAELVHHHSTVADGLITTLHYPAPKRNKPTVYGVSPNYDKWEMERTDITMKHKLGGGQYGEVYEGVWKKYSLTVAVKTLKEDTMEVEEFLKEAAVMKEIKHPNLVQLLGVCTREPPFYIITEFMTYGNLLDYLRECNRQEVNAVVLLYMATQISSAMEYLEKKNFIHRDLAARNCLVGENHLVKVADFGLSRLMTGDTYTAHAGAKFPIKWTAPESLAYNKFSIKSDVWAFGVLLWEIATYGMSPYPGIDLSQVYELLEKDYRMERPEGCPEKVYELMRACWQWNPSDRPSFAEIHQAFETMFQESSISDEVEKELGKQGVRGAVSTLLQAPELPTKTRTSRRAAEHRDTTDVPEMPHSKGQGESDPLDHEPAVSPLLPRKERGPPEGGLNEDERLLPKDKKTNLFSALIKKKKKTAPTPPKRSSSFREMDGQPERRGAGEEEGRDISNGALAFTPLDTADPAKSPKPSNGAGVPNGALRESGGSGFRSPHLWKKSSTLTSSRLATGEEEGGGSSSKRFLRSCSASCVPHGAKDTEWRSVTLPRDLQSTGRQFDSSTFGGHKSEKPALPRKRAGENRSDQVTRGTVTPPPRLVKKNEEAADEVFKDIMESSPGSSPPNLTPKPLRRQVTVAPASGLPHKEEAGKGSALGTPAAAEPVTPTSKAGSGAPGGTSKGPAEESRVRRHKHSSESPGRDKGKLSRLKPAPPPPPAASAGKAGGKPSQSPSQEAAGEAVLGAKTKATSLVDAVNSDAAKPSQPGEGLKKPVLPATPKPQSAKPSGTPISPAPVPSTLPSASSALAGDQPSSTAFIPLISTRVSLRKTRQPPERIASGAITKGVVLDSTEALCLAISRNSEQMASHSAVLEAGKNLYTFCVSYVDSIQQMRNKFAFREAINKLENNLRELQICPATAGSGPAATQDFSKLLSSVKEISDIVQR
Ras and Rab interactor 1/Tyrosine-protein kinase ABL1, sequence (Q13671 whole entry, the tested form may be a part): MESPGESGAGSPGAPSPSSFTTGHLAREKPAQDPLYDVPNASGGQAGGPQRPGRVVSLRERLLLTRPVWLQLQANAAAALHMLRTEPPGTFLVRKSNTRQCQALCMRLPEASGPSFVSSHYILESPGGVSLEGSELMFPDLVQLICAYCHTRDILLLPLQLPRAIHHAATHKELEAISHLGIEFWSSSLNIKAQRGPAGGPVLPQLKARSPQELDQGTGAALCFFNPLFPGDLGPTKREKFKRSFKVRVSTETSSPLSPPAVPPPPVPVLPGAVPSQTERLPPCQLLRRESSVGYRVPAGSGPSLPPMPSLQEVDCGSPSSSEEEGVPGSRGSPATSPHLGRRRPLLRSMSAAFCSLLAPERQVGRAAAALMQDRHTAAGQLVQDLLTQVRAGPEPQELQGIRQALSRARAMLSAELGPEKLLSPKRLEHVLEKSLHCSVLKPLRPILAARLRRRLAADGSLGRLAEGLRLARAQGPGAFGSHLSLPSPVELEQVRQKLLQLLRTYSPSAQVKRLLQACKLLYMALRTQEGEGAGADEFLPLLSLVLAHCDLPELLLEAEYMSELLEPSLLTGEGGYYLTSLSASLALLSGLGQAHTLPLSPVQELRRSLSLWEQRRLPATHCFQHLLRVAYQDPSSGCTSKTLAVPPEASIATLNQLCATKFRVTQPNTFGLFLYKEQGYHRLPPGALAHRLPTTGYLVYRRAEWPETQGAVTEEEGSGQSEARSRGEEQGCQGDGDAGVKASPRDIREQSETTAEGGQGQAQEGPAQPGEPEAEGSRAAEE
Histone-lysine N-methyltransferase NSD2, sequence (O96028 whole entry): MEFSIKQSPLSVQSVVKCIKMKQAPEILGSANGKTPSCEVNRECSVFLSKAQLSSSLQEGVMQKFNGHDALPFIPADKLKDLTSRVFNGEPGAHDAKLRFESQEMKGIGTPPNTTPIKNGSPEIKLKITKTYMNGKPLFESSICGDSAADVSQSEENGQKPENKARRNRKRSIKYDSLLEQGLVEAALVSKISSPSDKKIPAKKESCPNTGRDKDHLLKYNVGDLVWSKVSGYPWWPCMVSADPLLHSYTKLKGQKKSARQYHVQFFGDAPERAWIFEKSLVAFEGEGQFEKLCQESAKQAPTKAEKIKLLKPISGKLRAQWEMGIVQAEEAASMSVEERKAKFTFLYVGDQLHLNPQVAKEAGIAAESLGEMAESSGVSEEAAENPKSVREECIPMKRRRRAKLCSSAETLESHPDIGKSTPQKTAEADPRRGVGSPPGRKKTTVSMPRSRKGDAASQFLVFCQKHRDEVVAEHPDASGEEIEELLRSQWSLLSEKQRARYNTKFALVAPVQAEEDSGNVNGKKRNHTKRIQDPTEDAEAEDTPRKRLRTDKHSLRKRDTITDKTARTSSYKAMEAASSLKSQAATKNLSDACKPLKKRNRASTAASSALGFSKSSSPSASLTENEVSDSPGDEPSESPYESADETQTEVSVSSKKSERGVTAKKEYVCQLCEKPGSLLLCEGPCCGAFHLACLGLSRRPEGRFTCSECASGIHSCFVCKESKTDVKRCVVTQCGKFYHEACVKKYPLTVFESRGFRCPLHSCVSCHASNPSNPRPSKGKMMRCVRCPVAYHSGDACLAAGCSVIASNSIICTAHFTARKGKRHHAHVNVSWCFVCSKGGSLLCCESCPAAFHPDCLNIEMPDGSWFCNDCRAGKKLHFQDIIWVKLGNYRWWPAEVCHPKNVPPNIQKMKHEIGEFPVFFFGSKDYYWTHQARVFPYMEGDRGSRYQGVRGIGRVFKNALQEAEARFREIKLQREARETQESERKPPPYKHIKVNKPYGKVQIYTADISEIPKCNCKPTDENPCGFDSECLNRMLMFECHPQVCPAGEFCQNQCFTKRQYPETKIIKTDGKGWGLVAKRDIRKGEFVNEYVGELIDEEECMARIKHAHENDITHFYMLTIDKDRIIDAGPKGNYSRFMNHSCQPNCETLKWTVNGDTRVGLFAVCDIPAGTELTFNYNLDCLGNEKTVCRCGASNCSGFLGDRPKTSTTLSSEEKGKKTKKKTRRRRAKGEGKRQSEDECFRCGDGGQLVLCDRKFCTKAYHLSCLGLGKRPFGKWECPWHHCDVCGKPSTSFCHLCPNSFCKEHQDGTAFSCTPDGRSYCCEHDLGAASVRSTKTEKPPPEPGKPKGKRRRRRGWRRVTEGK
Protein Wnt-3a, sequence (P27467 whole entry): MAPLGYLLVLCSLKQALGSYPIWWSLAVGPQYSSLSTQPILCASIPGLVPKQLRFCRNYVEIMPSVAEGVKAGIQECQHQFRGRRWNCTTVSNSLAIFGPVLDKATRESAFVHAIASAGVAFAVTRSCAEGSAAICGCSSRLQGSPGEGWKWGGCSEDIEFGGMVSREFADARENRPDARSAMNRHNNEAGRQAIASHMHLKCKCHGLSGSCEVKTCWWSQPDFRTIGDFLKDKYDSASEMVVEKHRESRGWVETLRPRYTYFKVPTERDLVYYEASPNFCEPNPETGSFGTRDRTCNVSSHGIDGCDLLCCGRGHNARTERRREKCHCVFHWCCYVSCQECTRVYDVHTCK
Genome polyprotein, sequence (P29990 2492-3391 limits assumed): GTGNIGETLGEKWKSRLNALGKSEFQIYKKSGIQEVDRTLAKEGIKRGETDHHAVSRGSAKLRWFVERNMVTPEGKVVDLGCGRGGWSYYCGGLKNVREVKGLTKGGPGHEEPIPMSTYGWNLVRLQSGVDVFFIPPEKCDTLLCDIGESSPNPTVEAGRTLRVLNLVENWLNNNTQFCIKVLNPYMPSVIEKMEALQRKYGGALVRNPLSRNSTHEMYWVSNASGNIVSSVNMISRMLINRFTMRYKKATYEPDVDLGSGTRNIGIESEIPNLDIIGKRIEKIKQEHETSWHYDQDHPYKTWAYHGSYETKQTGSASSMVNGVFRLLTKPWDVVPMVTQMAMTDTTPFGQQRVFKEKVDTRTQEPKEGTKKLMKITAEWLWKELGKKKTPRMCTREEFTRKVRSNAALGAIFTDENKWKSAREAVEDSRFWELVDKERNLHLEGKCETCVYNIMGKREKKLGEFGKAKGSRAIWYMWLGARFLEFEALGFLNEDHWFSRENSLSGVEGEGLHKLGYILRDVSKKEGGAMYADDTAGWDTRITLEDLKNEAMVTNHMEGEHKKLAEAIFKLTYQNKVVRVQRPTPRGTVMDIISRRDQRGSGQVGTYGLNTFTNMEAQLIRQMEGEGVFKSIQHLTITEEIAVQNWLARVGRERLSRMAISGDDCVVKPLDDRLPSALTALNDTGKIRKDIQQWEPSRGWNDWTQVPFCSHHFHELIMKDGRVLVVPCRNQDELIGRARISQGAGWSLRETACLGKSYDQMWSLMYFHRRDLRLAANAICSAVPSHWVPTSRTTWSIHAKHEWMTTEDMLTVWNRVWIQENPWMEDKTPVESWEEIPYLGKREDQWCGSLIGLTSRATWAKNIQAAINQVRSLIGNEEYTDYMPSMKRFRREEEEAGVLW

Oc1ncnc2c1C(c1ccccc1)c1c(O)ncnc1O2
IC50 [1]: 32 µM (inactive)

N#C[C@@H]1[C@@H](c2ccc(-c3ccc(F)cc3)cc2)[C@H](CO)N1c1nc(-c2ccccc2)cs1
AC50 [2]: 84.2 µM (active)

Cn1c(C(=O)NCCN2CCCCCC2)cc2c(=O)n(C)c3ccccc3c21
AC50 [3]: 25.3 µM (active)

COCCNC(C(=O)Nc1cc(Cl)cc(Cl)c1)c1ccccc1 (stereo not drawn)
IC50 [4]: 16.1 µM (active)

Cc1cc(/C=C2\C(=O)NC(=O)N(c3ccccc3F)C2=O)c(C)n1-c1cc(C(=O)O)cc(C(=O)O)c1
AC50 [5]: > 20 µM (inactive)
IC50 [6]: 63.6 µM (active)
EC50 [7]: > 300 µM (not active)
EC50 [8]: > 300 µM (not active)
IC50 [9]: 10.7 µM (active)
IC50 [10]: 1.55 µM (active)

CCc1ccc(/C=C2/C(=O)N(C)C(=S)N2CC(=O)OC)s1
EC50 [11]: > 120 µM (not active)
EC50 [12]: 16.6 µM (active)
EC50 [13]: > 120 µM (not active)
CC50 [14]: > 100 µM (active)

CCCCN(C(C)=O)c1ccc2c(c1)C1CC2CCN1C(=O)OCc1ccccc1 (stereo not drawn)
IC50 [15]: 3.72 µM (active)
AC50 [16]: 4.4 µM (active)
AC50 [17]: 1.37 µM (active)
AC50 [18]: 66.9 µM (active)

N#CC(c1nc2ccccc2s1)c1c(Cl)cnn(Cc2cccc3ccccc23)c1=O (stereo not drawn)
IC50 [19]: 0.186 µM (active)
IC50 [20]: 0.186 µM (active)

CC(=O)c1cccc(-c2cnc3c(NC=O)cc(-c4ccc(N(C)C)cc4)cn23)c1
IC50 [21]: 11.2 µM (active)
IC50 [22]: 9.66 µM (active)
EC50 [23]: > 89.2 µM (inactive)
